Results as given in publication PMC4404333, “Identification of Selective Inhibitors of the Plasmodium falciparum Hexose Transporter PfHT by Screening Focused Libraries of Anti-Malarial Compounds” (PLoS ONE, 2015).
Values after ≈ are worked out from the molar mass of the structure shown. Read-outs that look alike come from different tables or passages of the source.

What was measured:
P. falciparum strain K1 = test: Proliferation of intraerythrocytic P. falciparum K1 (SYBR Green, 72 h); format: cell-based, Plasmodium falciparum; details: multi-drug resistant strain K1, 72 h, read-out: Pf K1 EC50
Protocol: Two P. falciparum strains were used in this study and were provided by the MR4 Unit of the American Type Culture Collection (ATCC, Manassas, VA). Those two strains were the chloroquine sensitive strain 3D7 and the K1 strain that is resistant to chloroquine, pyrimethamine, and sulfadoxine.
Asynchronous parasites were maintained in culture based on the method of Trager. Parasites were grown in presence of fresh group O-positive erythrocytes (Key Biologics, LLC) in Petri dishes at a hematocrit of 4–6% in RPMI based media (RPMI 1640 supplemented with 0.5% AlbuMAX II, 25 mM HEPES, 25 mM NaHCO3 (pH 7.3), 100 μg/mL hypoxanthine, and 5 μg/mL gentamycin). Cultures were incubated at 37°C in a gas mixture of 90% N2, 5% O2, 5% CO2. For EC50 determinations, 20 μL of RPMI 1640 with 5 μg/mL gentamycin were dispensed per well in an assay plate (Corning 384-well microtiter plate, clear bottom, tissue culture treated, catalog no. 8807BC). 40 nL of compound, previously serially diluted in a separate 384-well white polypropylene plate (Corning, catalog no. 8748BC), was dispensed to the assay plate by hydrodynamic pin transfer (FP1S50H, V&P Scientific Pin Head) and then 20 μL of a synchronized culture suspension (1% rings, 4% hematocrit) was added to each well, thus making a final hematocrit and parasitemia of 2% and 1%, respectively. Assay plates were incubated for 72 h, and the parasitemia was determined by a method previously described: Briefly, 10 μL of the assay solution in PBS (10X SYBR Green I, 0.5% v/v triton X-100, 0.5 mg/mL saponin) was added to each well. Assay plates were shaken for 1 min, incubated in the dark for 90 min, and read with an Envision (Perkin Elmer) spectrophotometer at Ex/Em of 485 nm/535 nm. EC50s were calculated with a custom program (RISE, Robust Investigation of Screening Experiments) using a four-parameter logistic equation.

Solubility assay = format: physicochemical; details: PBS buffer, aqueous buffer, kinetic from dmso stock, PBS pH 7.4, room temperature
Protocol: Next, 5 μL of this reference stock plate was mixed with 70 μL of 1-propanol and 75 μL of PBS (pH 7.4) to make the reference plate, and the UV spectrum (250–500 nm) of the reference plate was read. Then, 6 μL of 10 mM test compound stock was added to 600 μL of PBS, pH 7.4, in a 96-well storage plate and mixed. The storage plate was sealed and incubated at room temperature for 18 h. The suspension was then filtered through a 96-well filter plate (pION Inc.). Next, 75 μL of filtrate was mixed with 75 μL of 1-propanol to make the sample plate, and the UV spectrum of the sample plate was read. Calculations were done using μSOL Evolution software based on the area under the curve (AUC) of the UV spectrum of the sample plate and the reference plate. All compounds were tested in triplicate.

[1] = Parallel artificial membrane permeability assay (PAMPA); details: for Permeation: pH 7.4; for Retention: retention in artificial membrane
Protocol: A parallel artificial membrane permeability assay (PAMPA) was conducted on a Biomek FX lab automation workstation (Beckman Coulter, Inc.) with PAMPA evolution 96 command software (pION Inc.) as follows: 3 μL of 10 mM test compound stock was mixed with 600 μL of PBS (pH 7.4) to make diluted test compound. Then 150 μL of diluted test compound was transferred to a UV plate (pION Inc.), and the UV spectrum was read as the reference plate. The membrane on a preloaded PAMPA sandwich (pION Inc.) was painted with 4 μL of GIT lipid (pION Inc.). The acceptor chamber was then filled with 200 μL of acceptor solution buffer (pION Inc.), and the donor chamber was filled with 180 μL of diluted test compound. The PAMPA sandwich was assembled, placed on the Gut-Box controlled environment chamber and stirred for 30 min. The aqueous boundary layer was set to 40 μm for stirring. The UV spectrum (250–500 nm) of the donor and the acceptor were read. The permeability coefficient was calculated using PAMPA Evolution 96 Command software (pION Inc.) based on the AUC of the reference plate, the donor plate, and the acceptor plate. All compounds were tested in triplicate.

[2] = Liver microsomes stability assay; format: in vitro ADME, mouse; details: both sexes, CD-1, pH 7.4; for CLint scaled at 9.8 μM: intrinsic clearance calculated from in vitro t1/2, mouse liver microsomes; for half-life at 9.8 μM: mouse liver microsomes, read-out: Mouse Metabolic Stability t1/2 (converted)
Protocol: The microsomal stability assay was carried out as described. […] Each test compound (2.2 μL of 10 mM DMSO solution) was added directly to 1.79 mL of mouse liver microsomal solution and 90 μL was transferred to wells in 96-well plates (0, 0.25, 0.5, 1, 2, and 4 h time points each in triplicate). The NADPH regenerating agent was prepared by mixing 0.113 mL of NADPH regenerating agent solutions A, 0.023 mL of solution B and 0.315 mL of 0.1 M potassium phosphate buffer (pH 7.4) for each tested compound. To each well of the 96-well plate, 22.5 μL of the NADPH regenerating agent was added to initiate the reaction, and the plate was incubated at 37°C for each time point (0, 0.25, 0.5, 1, 2, and 4 h time points each in triplicate). The reaction was quenched by adding 225 μL of cold acetonitrile containing warfarin (4 μg/mL) as internal control to each well. All of the plates were centrifuged at 3220 g for 20 min and the supernatants (100 μL) were transferred to another 96-well plate for analysis on UPLC—MS (Waters Acquity UPLC linked to Waters Acquity Photodiode Array Detector and Waters Acquity Single Quadrupole Mass Detector) on an Acquity UPLC BEH C18 1.7 μm (2.1x50 mm) column by running 90–5% gradient for water (0.1% formic acid) and acetonitrile (0.1% formic acid) in 2 minutes. The area under the single ion recording (SIR) channel for the test compound divided by the area under the SIR for internal control at 0 time concentration was considered as 100% to calculate remaining concentration at each time point. The terminal phase rate constant (ke) was estimated by linear regression of logarithmic transformed concentration versus time, where ke = slope x(-ln10). The half-life t1/2 was calculated as ln2/ke.

[3] = Plasmodium falciparum, K1, 72 h

Compound	EC50 (P. falciparum strain K1; [3]) [µM]	EC50 (P. falciparum strain K1) [µM]	solubility at 18 h (Solubility assay) [µM]	Permeation [1]	Retention [1] [%]	CLint scaled at 9.8 μM [2] [mL/min/kg]	half-life at 9.8 μM [2] [min]
COc1cc(Nc2ccc3cc(S(=O)(=O)N4CCCCC4C)ccc3n2)cc(OC)c1OC (stereo not drawn) [Compound 1]	~1	0.97	0.5 ± 0.4 (≈ 0.236 µg/mL)	1057 ± 69 10^-6 cm/s	70 ± 2.0	213	16.2
CC1CCCCN1S(=O)(=O)c1ccc2nc(Nc3ccccc3)ccc2c1 (stereo not drawn) [Compound 10]	> 10	12	0.4 (≈ 0.153 µg/mL)	534 ± 25 10^-6 cm/s	80 ± 12	438	7.8
CC1CCCCN1S(=O)(=O)c1ccc2nc(Nc3ccc(C#N)cc3)ccc2c1 (stereo not drawn) [Compound 12]	> 10	> 16		570 ND 10^-6 cm/s	93 ± 3.8	178	19.2
CC1CCCCN1S(=O)(=O)c1ccc2nc(Nc3cccc(C#N)c3)ccc2c1 (stereo not drawn) [Compound 13]	> 10	7.3	0.9 ± 1.2 (≈ 0.366 µg/mL)	582 ± 205 10^-6 cm/s	93 ± 0.5	680	4.8
